Patent publication US20260355132A1, “POLYMORPHIC FORMS OF EPINEPHRINE MALONATE” (Biothea Pharma, Inc., priority 2023, published 2026)
Where a name gives a salt, the structure may show the parent alone.

Experiments:
Format in all cases: physicochemical
[1] = Relative thermodynamic stability studies in EtOH, EtOH/water and IPA/water; solid-state form stability; settings: for relative humidity at which the form is kinetically stable: solid state, Form B once formed, Form C (days); for water activity (aw) at which the form is most-stable: room temperature
Experimental: Relative thermodynamic stability studies in EtOH (crystallization process solvent), EtOH/water and IPA/water were performed. […] The critical water activity for Forms A/B interconversion is between aw=0.4-0.55 (40-55% RH). The transition temperature (Tt) for the enantiotropically related Forms A/C is between RT-40 °C. […] Form C is kinetically stable in solid state (days) at <40% RH.

[2] = Water solubility of epinephrine malonate salt (general description); settings: no method given
[3] = Kinetic solubility in water (HPLC); settings: 20 °C; for amount nearly dissolved in 0.5 mL of added water: 0.5 mL water; for amount nearly dissolved in 0.5 mL of added water / Approximate Solubility (g/mL) / Approximate Solubility / Approximate Solubility (mg/0.5 mL): 30 min; for Approximate Solubility (g/mL) / Approximate Solubility / Approximate Solubility (mg/0.5 mL) / Content of Salt in VF (mg) 30 min: water, HPLC; for Approximate Solubility (g/mL) / Approximate Solubility: kinetic solubility
Experimental: The kinetic solubility of Form A epinephrine malonate salt and bitartrate salt was determined using the procedure described herein. The solid active pharmaceutical ingredient was allowed to equilibrate from 5 °C to ambient temperature for 1 h. Solids were weighed (0.76 g of malonate and 0.20 g of bitartrate) into 4-mL vials containing a magnetic polytetrafluoroethylene (PTFE) stir bar. Water (0.5 mL) was added and samples were stirred at 20 °C. Additional API was gradually added in small portions over 30 min until trace amount of residual solid was present. At 30 min, the content of the nearly dissolved sample was transferred to a volumetric flask (VF), diluted, subjected to HPLC analyses, and adjusted for initial volume of water used.
The HPLC analysis was conducted using an Agilent 1100 with a Phenomenx Gemini C18, 100×4.6 mm, 3.0 um column. The column temperature was 50 °C, wavelength 210 nm, and flow rate 1.2 mL/min. Mobile Phase A was 5:95 MeCN: Buffer and Mobile Phase B was 45:55 MeCN: Buffer.
The kinetic solubility of Form B was determined using the procedure described herein. The solid Form B was allowed to equilibrate from storage temperature (5 °C) to ambient temperature for 1 hour. Solids were weighed (0.025 g of Form B) into a 4-mL vial containing a magnetic PTFE stir bar. Water (0.5 mL) was added and the sample was stirred at 20 °C. Additional API was gradually added in small portions over 30 min until trace amount of residual solid was present. At 30 minutes, the content of the nearly dissolved sample was transferred to a volumetric flask (VF), diluted, subjected to HPLC analyses, and adjusted for initial volume of water used.

[4] = Dynamic vapor sorption (DVS); settings: 25 °C, nitrogen carrier gas, 0-95% relative humidity
Experimental: Form A was subjected to DVS. DVS is a gravimetric technique that measures how quickly and how much of a solvent is absorbed by a sample such as a dry powder absorbing water. The test was conducted using a Surface Measurement Systems DVS Intrinsic Plus at a temperature of 25 °C and using nitrogen as a carrier gas. The relative humidity range spanned from 0-95% and the maximum equilibration time was 240 minutes. The relative humidity steps included 40-50-60-70-75-70-60-50-40-30-20-10-0-10-20-30-40-50-60-70-75-80-90-95-90-80-75-70-60-50-40-30-20-10-0%.
Form A was subjected to the increasing relative humidity until a change in mass occurred. Once a change in mass resulted, the relative humidity was lowered to determine stability of the resulting mass. The relative humidity was then increased again until another change in mass resulted. Once a change in mass resulted, the relative humidity was lowered to determine stability of the resulting mass.

[5] = pKa of epinephrine malonate salt Form A (general description); settings: no method given
[6] = Stability profile of epinephrine malonate salt (general description); settings: 7, 14, 30, 60, 90, 120, or 150 days
[7] = relative thermodynamic stability
[8] = listed as Epinephrine Malonate Form A

Row | relative humidity at which the form is kinetically stable [1] | critical relative humidity for Forms A/B interconversion [1] | critical water activity for Forms A/B interconversion (aw) [1] | water activity (aw) at which the form is most-stable [1, 7] | amount nearly dissolved in 0.5 mL of added water [3] [mg] | Approximate Solubility (mg/0.5 mL) [3] [mg mg/0.5 mL] | Approximate Solubility [3] [mg/mL] | Content of Salt in VF (mg) 30 min [3] [mg] | SMILES | also measured
1 | < 40 % RH |  |  |  |  |  |  |  | CNC[C@H](O)c1ccc(O)c(O)c1 [Form C, epinephrine malonate] | water activity (aw) at which the form is more stable at 40 °C ([1]; 40 °C, relative thermodynamic stability): 0
2 |  | 40-55 % RH | 0.4-0.55 | ≤ 0.4 | 912 |  |  |  | CNC[C@H](O)c1ccc(O)c(O)c1 [Form A, epinephrine malonate] | solubility ([2]; water): ≥ 1140 mg/mL; Approximate Solubility (g/mL) [3]: ~ 1.82 g/mL; Approximate Solubility [3, 8]: ~1820 mg/mL; Approximate Solubility (mg/0.5 mL) [3, 8]: ~911 mg mg/0.5 mL; Content of Salt in VF (mg) 30 min [3, 8]: 911.53 mg; changes in mass during DVS [4]: Two changes in mass occurred; pKa [5]: 5.47
3 | 0-80 % RH | 40-55 % RH | 0.4-0.55 | ≥ 0.55 | 511 | ~511 | 1000 | 511 | CNC[C@H](O)c1ccc(O)c(O)c1 [Form B, epinephrine malonate] | relative humidity for solid-state transition from Form A to Form B ([1]; solid-state): ≥ 40 % RH; formation of Form B in solid state ([1]; solid-state, >55% RH): forms relatively quickly (hours) at >55% RH
4 |  |  |  |  |  |  |  |  | CNC[C@H](O)c1ccc(O)c(O)c1 [epinephrine malonate salt, epinephrine malonate] | water solubility compared with other epinephrine salts (maleate, fumarate, hemi sulfate, bitartrate, hydrochloride) ([2]; crystalline form): substantially higher; stability profile [6]: favorable stability profile
5 |  |  |  |  |  | ~259 | ~520 | 259.45 | CNC[C@H](O)c1ccc(O)c(O)c1 [Epinephrine Bitartrate, epinephrine bitartrate, reference compound] | amount nearly dissolved in 0.5 mL of added water ([3]; listed as bitartrate salt): 259 mg; Approximate Solubility (g/mL) ([3]; listed as bitartrate salt): ~ 0.52 g/mL
